Measurements from ChEMBL document CHEMBL1156829 (Proc Natl Acad Sci U S A, 2008).
Several values for one entry are separate records, joined by “and”; a condition that tells them apart may be missing. Identical values can stand only once.

What was measured:
[1] = system: Plasmodium falciparum; experiment: NOVARTIS: Inhibition of Plasmodium falciparum 3D7 (drug-susceptible) proliferation in erythrocyte-based infection assay; type: functional, organism-based
[2] = system: Plasmodium falciparum; experiment: NOVARTIS: Inhibition of Plasmodium falciparum W2 (drug-resistant) proliferation in erythrocyte-based infection assay; type: functional, organism-based; conditions: read-out: EC50
[3] = NOVARTIS: Cytotoxicity against human hepatocellular carcinoma cell line (Huh7); type: toxicity, cell-based, Huh-7; conditions: Huh7 cells (hepatocellular carcinoma cell line)

SMILES	EC50 ([1]; Plasmodium falciparum, 3D7) [nM]	EC50 ([2]; Plasmodium falciparum, W2) [nM]	CC50 [3] [nM]	EC50 [1]	EC50 [2] [nM]
O=C(COC(c1cccs1)c1cccnc1Cl)N1CCN(CCO)CC1 (stereo not given)	> 12500	1290	> 100000	–	–
Oc1ccc(-c2ccnc3cc(Cl)ccc23)cc1CNCCN1CCOCC1	984	622	> 11900	–	–
C=C[C@H]1CN2CC[C@H]1C[C@@H]2[C@@H](OC(=O)C(C)C)c1ccnc2ccccc12	318	199	> 10000	–	–
CCOC(=O)C1=C(C)NC2=C(C(=O)CC(c3ccc(OC)c(OC)c3)C2)C1c1cccc(Cl)c1Cl (stereo not given)	32.9	30.5	> 100000	–	–
O=[N+]([O-])c1ccc(-n2cccc2C=NNc2ncnc3sc4c(c23)CCCC4)cc1	2780	1410	7450	–	–
O=C1CC(c2ccccc2)Oc2ccc(F)cc21 (stereo not given)	> 1250	> 734	> 10000	–	–
CCOc1ccc(S(=O)(=O)Oc2cccc3cccnc23)cc1	> 1690	> 1190	> 10000	–	–
C=CCSc1nc(N)c2c3c(sc2n1)CN(CCC)CC3	623	168	> 100000	–	–
CC(C)CC1=Nc2cc(C(=O)NC(C)C)ccc2CN1Cc1ccccc1	> 1030	> 1250	> 10000	–	–
CC1CCN(S(=O)(=O)c2ccc(C(=O)NCc3ccco3)cc2)CC1	894	1090	> 100000	–	–
CN(C)c1ccc(/C=C2\SC(=Nc3ccc(F)cc3)NC2=O)cc1	361	493	> 10000	–	–
O=C1C(Nc2ccccc2)=C(n2nnc3ccccc32)C(=O)c2ccccc21	2020	259	6300	–	–
Cc1cccc(NC(c2ccccc2F)c2ccc3cccnc3c2O)n1 (stereo not given)	2940	331	> 61800	–	–
OC1=C2C(=Nc3ccccc3SC2c2ccc(Br)cc2)c2ccccc21 (stereo not given)	337	57.7	> 48000	–	–
Cc1cc(Br)cc(Cl)c1OC(=O)c1ccno1	> 12500	3000	> 100000	–	–
COc1cccc2c1[C@@H](OC)[C@@]13O[C@]1(C2=O)[C@H](O)[C@@H](C)[C@](O)(C(=O)[C@@H]1O[C@H]1C)[C@H]3O	264	226	2820	–	–
N=C(N)NN=Cc1cccc(OCc2ccc(Cl)c(Cl)c2)c1	1990	1690	> 10000	–	–
CCOc1ccccc1NC(=O)C1C(c2ccccc2)=C1c1ccccc1	1800	> 1250	> 10000	–	–
Cc1cc(C)c(S(=O)(=O)NCc2ccc(Cl)cc2)c(C)c1	> 12500	6590	48900	–	–
CCOC(=O)C1=C(C)NC2=C(C(=O)CC(c3ccc(OC)cc3)C2)C1c1ccccc1F (stereo not given)	74.1	27.1	> 100000	–	–
O=C(Nc1ccc(N2CCCCC2)cc1)N1CCc2nc[nH]c2C1	> 1250	1010	> 6670	–	–
O=C(NCCN1CCCCC1)c1ccc(OC2CCN(CC3CCCCC3)CC2)c(Cl)c1	344	1170	5370	–	–
CCOC(=O)c1cnc2ccc(OC)cc2c1O	–	1300	> 100000	727 nM and 245 nM	721

SMILES	EC50 ([1]; Plasmodium falciparum, 3D7) [nM]	EC50 ([2]; Plasmodium falciparum, W2) [nM]	CC50 [3] [nM]	EC50 [1]	EC50 [2] [nM]
COc1cc(/C=C\C(=O)Nc2c3c(nn2-c2ccc(F)cc2)CSC3)cc(OC)c1OC	614	84.4	> 10000	–	–
CCc1ccc(-n2c(C(CC)N(CCc3ccccc3)C(=O)c3cc(OC)cc(OC)c3)nc3ccccc3c2=O)cc1 (stereo not given)	> 547	292	> 10000	–	–
COc1ccc2c(c1)-c1c(ssc1=S)C(C)(C)N2C(=O)c1ccccc1F	652	118	> 100000	–	–
O=C(NCc1ccccc1)C(c1ccc(F)cc1)N(Cc1ccco1)C(=O)c1cnccn1 (stereo not given)	> 8940	2520	> 100000	–	–
CCOC(=O)C1=C(C)NC2=C(C(=O)C(C(=O)OCC)C(c3cccc(OC)c3)C2)C1c1ccc(Br)cc1 (stereo not given)	2170	671	> 100000	–	–
Fc1ccc(C2(CCCSc3nnc4c(n3)[nH]c3ccccc34)OCCO2)cc1	400	141	> 100000	–	–
CCC(=O)NNc1cc(N2CCCC2)nc(N2CCCC2)n1	790	760	> 100000	–	–
O=C1CN=C(c2ccccc2)c2cc(Cl)ccc2N1Cc1cc(=O)n2ccccc2n1	3550	344	> 100000	–	–
CCOc1cc(C2CC(=O)NC3=C2C(=O)CC(c2ccc(OC)cc2)C3)cc(Cl)c1O (stereo not given)	612	285	> 100000	–	–
COc1ccc2c(c1)C=C([C@@H]1C[C@H]3CN(c4ccccc4)C(=O)[C@]34CCCN14)CO2	588	289	> 100000	–	–
CSc1nc(N)c2c3c(sc2n1)CCCC3	> 1250	> 253	> 10000	–	–
Cc1cccn2c(NCc3ccccc3)c(-c3ccccc3OC(=O)CCCCl)nc12	781	253	> 10000	–	–
COc1ccc(/C=C2/SC(=N)N(c3ccccc3OC)C2=O)cc1	350	291	> 10000	–	–
CC1(C)N=C(N)N=C(N)N1c1ccccc1	174	988	> 83700	–	–
COc1ccc(-c2cc(-c3ccccc3)nc(SCC(=O)N3c4ccccc4Sc4ccc(Cl)cc43)c2C#N)cc1	> 427	> 1530	> 10000	–	–
O=C(Nc1ccc(Cl)cc1)Oc1ccccc1 [PHENYL 4-CHLOROPHENYLCARBAMATE]	> 12500	2010	51900	–	–
CCC(Oc1ccc(C(C)(C)CC)cc1C(C)(C)CC)C(=O)Nc1ccc([N+](=O)[O-])cc1O (stereo not given)	> 5260	348	> 100000	–	–
CCCCN(CCCC)CCCNc1ncnc2c1[nH]c1ccc(C)cc12	148	100	7410	–	–
Cc1ccc(Cl)cc1N1C(=O)[C@@H]2[C@H](C1=O)C1c3ccccc3C=CN1[C@@H]2C(=O)c1cccs1 (stereo not given in full)	1060	529	> 10000	–	–
COc1ccc(-n2c(SC)nc3sc4c(c3c2=O)CCN(Cc2ccccc2)C4)cc1	2480	2550	> 100000	–	–
Cc1ccc2[nH]c3c(NCCCN(C)C)ncnc3c2c1	77.7	355	42000	–	–
C[n+]1cc(-c2ccc3cccc([N+](=O)[O-])c3n2)cc2ccccc21	364	450	> 10000	–	–
CC[n+]1c(/C=C/C=C2\N(C)c3ccccc3C2(C)C)n(-c2ccccc2)c2cc(Cl)ccc21	287	530	1690	–	–

SMILES	EC50 ([1]; Plasmodium falciparum, 3D7) [nM]	EC50 ([2]; Plasmodium falciparum, W2) [nM]	CC50 [3] [nM]	EC50 [1]	EC50 [2] [nM]
CC(=O)Nc1ccc(S(=O)(=O)Nc2ccccc2[N+](=O)[O-])cc1	677	1400	> 10000	–	–
CC1=NOC(=O)/C1=C\c1cccs1	> 1250	> 1240	> 10000	–	–
CCOC(=O)c1[nH]nc(C(=O)c2ccccc2)c1-c1ccccc1	> 393	> 1350	> 10000	–	–
O=C(Nc1ccc(-c2nc3ccc(NC(=O)c4cccc5ccccc45)cc3[nH]2)cc1)c1cccc2ccccc12	1430	1920	> 10000	–	–
COc1cc(NC(C)CCCN(Cc2ccccc2OC)S(=O)(=O)c2ccc(Br)cc2)c2ncccc2c1 (stereo not given)	945	427	4580	–	–
O=C(NC1CCN(CC(O)CN(Cc2ccccc2)S(=O)(=O)c2ccccc2)C1)c1cccc2ccccc12 (stereo not given)	82.5	< 8.3	> 10000	–	–
CCC(=O)N1CCc2cc(S(=O)(=O)N3CCN(c4cccc(C(F)(F)F)c4)CC3)ccc21	574	398	> 10000	–	–
FC(F)(F)c1cccc(NC(=S)N2CCSC2c2ccc(Br)cc2)c1 (stereo not given)	217	116	43300	–	–
COC(=O)c1[nH]c2ccc(Cl)cc2c1NC(=O)C(C)N1CCN(C2CCCCC2)CC1 (stereo not given)	7740	> 12500	> 100000	–	–
CCN1C(=O)N(CC)C(NNC(N)=S)C1NNC(N)=S (stereo not given)	123	152	> 100000	–	–
CCc1ccc(NC(=O)c2sc3nc4c(c(-c5ccco5)c3c2N)CCCC4)cc1	1820	1070	> 100000	–	–
COC(=O)COc1ccc(/C=C2\SC(=Nc3ccc(F)cc3)NC2=O)cc1	> 757	1790	> 10000	–	–
CN1CCN(c2ccc(Nc3c4ccccc4nc4ccccc34)cc2)CC1	56.7	95.5	6760	–	–
COc1ccc(Nc2nc(-c3cc4cc(OC)ccc4oc3=O)cs2)c(OC)c1	> 12500	> 7470	> 100000	–	–
O=C(NCCC(c1ccccc1)c1ccccc1)c1cccc([N+](=O)[O-])c1	302	618	> 10000	–	–
COc1ccccc1N1CCN(C(=O)Nc2ccc3ccccc3c2)CC1	> 1280	315	> 10000	–	–
CCOC(=O)C1=C(N)n2c(sc(=Cc3cccnc3)c2=O)=C(C(=O)OC)C1c1cccnc1 (stereo not given)	> 1250	> 922	> 10000	–	–
CNCC(O)c1ccc(Cl)c(Cl)c1 (stereo not given)	837	99.1	> 10000	–	–
CCC(C)CNC(=O)c1ccc(OC2CCN(CC3CCCCC3)CC2)c(Cl)c1 (stereo not given)	78.2	48.4	> 13200	–	–
CC1CCCCN1CCCNCc1ccc(OCc2ccccc2)cc1 (stereo not given)	385	298	4650	–	–
Oc1ccc(-c2ccc3c(c2)OCO3)cc1CNC12CC3CC(CC(C3)C1)C2	832	225	> 100000	–	–
CCC1=NN2C(=N)/C(=C/c3cn(CCOc4cccc(C)c4)c4ccccc34)C(=O)N=C2S1	> 1250	> 572	> 10000	–	–
